According to the supplement of paper PMC8960247:
± gives the standard error.

Assays:
621-102 (TSC2-deficient) [1] = assay: relative viability vs DMSO; higher = less cytotoxic; settings: serum: 10% FBS, 72 h
621-103 (TSC2-rescued) = assay: as above; settings: serum: 10% FBS, 72 h
621-102 (TSC2-deficient) [2] = assay: relative viability vs DMSO (fraction); higher = less cytotoxic; settings: serum: 0.1% FBS, 72 h
UMB1949 (TSC2-deficient) = assay: as above; settings: serum: 0.1% FBS, 72 h;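 also: renal angiomyolipoma cell lines screened in 384-well plates, viability normalized per plate to DMSO-treated cells, each plate carrying 50 nM rapamycin and 1 µM staurosporine controls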

SMILES	relative viability (621-102 (TSC2-deficient) [1]; 0.0001 µM) [%]	relative viability (621-102 (TSC2-deficient) [1]; 0.001 µM) [%]	relative viability (621-102 (TSC2-deficient) [1]; 0.01 µM) [%]	relative viability (621-102 (TSC2-deficient) [1]; 0.1 µM) [%]	relative viability (621-102 (TSC2-deficient) [1]; 1 µM) [%]	relative viability (621-102 (TSC2-deficient) [1]; 10 µM) [%]	relative viability (621-103 (TSC2-rescued); 0.0001 µM) [%]	relative viability (621-103 (TSC2-rescued); 0.001 µM) [%]	relative viability (621-103 (TSC2-rescued); 0.01 µM) [%]	relative viability (621-103 (TSC2-rescued); 0.1 µM) [%]	relative viability (621-103 (TSC2-rescued); 1 µM) [%]	relative viability (621-103 (TSC2-rescued); 10 µM) [%]	relative viability (621-102 (TSC2-deficient) [2]; 0.0128 nM)	relative viability (621-102 (TSC2-deficient) [2]; 0.064 nM)	relative viability (621-102 (TSC2-deficient) [2]; 0.32 nM)	relative viability (621-102 (TSC2-deficient) [2]; 1.6 nM)	relative viability (621-102 (TSC2-deficient) [2]; 8 nM)	relative viability (621-102 (TSC2-deficient) [2]; 40 nM)	relative viability (621-102 (TSC2-deficient) [2]; 200 nM)	relative viability (621-102 (TSC2-deficient) [2]; 1000 nM)	relative viability (621-102 (TSC2-deficient) [2]; 5000 nM)	relative viability (UMB1949 (TSC2-deficient); 0.0128 nM)	relative viability (UMB1949 (TSC2-deficient); 0.064 nM)	relative viability (UMB1949 (TSC2-deficient); 0.32 nM)	relative viability (UMB1949 (TSC2-deficient); 1.6 nM)	relative viability (UMB1949 (TSC2-deficient); 8 nM)	relative viability (UMB1949 (TSC2-deficient); 40 nM)	relative viability (UMB1949 (TSC2-deficient); 200 nM)	relative viability (UMB1949 (TSC2-deficient); 1000 nM)	relative viability (UMB1949 (TSC2-deficient); 5000 nM)
CO[C@H]1C[C@@H]2CC[C@@H](C)[C@@](O)(O2)C(=O)C(=O)N2CCCC[C@H]2C(=O)O[C@H]([C@H](C)C[C@@H]2CC[C@@H](OC(=O)C(C)(CO)CO)[C@H](OC)C2)CC(=O)[C@H](C)/C=C(\C)[C@@H](O)[C@@H](OC)C(=O)[C@H](C)C[C@H](C)/C=C/C=C/C=C/1C [Temsirolimus]	40.82 ± 0.13	40.9 ± 3.7	36.1 ± 3.5	36.5 ± 3.5	41.1 ± 4.7	40.6 ± 4.3	84.1 ± 1.2	75.1 ± 3.1	78.7 ± 1.2	83.1 ± 3.1	76.9 ± 5	67.44 ± 0.43	0.696	0.68	0.714	0.666	0.524	0.422	0.263	0.274	0.171	0.901	0.874	0.846	0.894	0.91	0.816	0.629	0.415	0.379
COc1cc(Nc2ncc3c(n2)-c2ccc(Cl)cc2C(c2c(F)cccc2OC)=NC3)ccc1C(=O)O [MLN8237]	102 ± 2.6	87.64 ± 0.83	95.68 ± 0.57	87.6 ± 0.9	74.6 ± 5.1	69.9 ± 2.5	103 ± 2.5	103.9 ± 0.17	98.7 ± 2.3	93.8 ± 1	91.1 ± 1.4	74.62 ± 0.32	0.864	0.862	0.767	0.248	0.118	0.0792	0.0576	0.0449	0.0354	0.99	0.824	0.525	0.215	0.146	0.0466	0.0216	0.0132	0.0159
Cc1ccc(C(=O)Nc2cccc(C(F)(F)F)c2)cc1Nc1nc(-c2cccnc2)nc2c1cnn2C [NVP-BHG712]	108 ± 1.1	108 ± 0.36	107 ± 2.5	102 ± 2.6	99.4 ± 2	33.9 ± 4	105 ± 1.7	104.74 ± 0.059	102 ± 1.1	95.4 ± 2.5	78.2 ± 1.3	17.4 ± 1.2	1.3	1.15	1.19	1.1	1.24	1.37	0.67	0.135	0.011	1.21	1.1	1.09	1.12	1.12	1.14	0.95	0.301	0.0076
CNC(=O)c1cc(Oc2ccc(NC(=O)Nc3cc(C(C)(C)C)nn3-c3ccc4ncccc4c3)c(F)c2)ccn1 [DCC-2036]	100 ± 5.8	97.14 ± 0.62	92.2 ± 4.6	87 ± 1.4	87.2 ± 2	9.801 ± 0.031	96.92 ± 0.83	98.2 ± 4.1	90.7 ± 1.8	69.51 ± 0.61	59.4 ± 0.26	9.01 ± 0.21	1.65	1.68	1.69	1.63	1.59	1.62	1.43	0.931	0.0177	1.18	1.26	1.25	1.24	1.32	0.354	1.05	0.00706	0.00896
Nc1ncnc2c1c(-c1cccc(OCc3ccccc3)c1)cn2C1CC(CN2CCCC2)C1 (stereo not given) [NVP-ADW742]	74.8 ± 0.9	61.6 ± 3.1	69.9 ± 9.3	66.3 ± 5.1	77.3 ± 6	70.1 ± 4.5	98.4 ± 1	96 ± 1.5	94.3 ± 2.1	96.7 ± 2.4	92.3 ± 6	59.3 ± 0.83	1.03	1.02	1.03	1.04	1.05	0.948	0.817	0.724	0.0714	1.02	1.04	1.13	1.14	1.07	1.09	0.995	0.273	0.0444
CCC[C@H](NC(=O)/C(C#N)=C/c1cccc(Br)n1)c1ccccc1 [WP1130]	104 ± 6	98.3 ± 8.2	99 ± 1.9	100 ± 3.1	42.6 ± 3.9	12.9 ± 0.62	99.84 ± 0.79	111 ± 2.8	109 ± 2.5	105 ± 1.6	65.6 ± 11	11.4 ± 1.6	1.37	1.16	1.59	1.27	1.4	1.62	1.11	0.0118	0.0115	1.14	0.962	1.13	1.04	1.02	1.14	0.0225	0.00218	0.00472
CO[C@@H](C(=O)N1Cc2[nH]nc(NC(=O)c3ccc(N4CCN(C)CC4)cc3)c2C1)c1ccccc1	105 ± 3.9	101 ± 2.8	98 ± 8.5	91.8 ± 2.3	64.1 ± 0.79	31.6 ± 0.91	85.7 ± 2.3	90.8 ± 0.93	92.6 ± 5	89.5 ± 2.8	62.3 ± 1.8	11.5 ± 0.39	0.925	0.972	0.92	0.989	0.816	0.325	0.0618	0.0757	0.00444	0.936	0.879	0.868	1.02	0.261	0.037	0.0271	0.00276	0.000648
CCOc1ccn(-c2ccc(F)cc2)c(=O)c1C(=O)Nc1ccc(Oc2ccnc(N)c2Cl)c(F)c1	106 ± 3.3	101.7 ± 0.87	103 ± 2.8	104.97 ± 0.1	100 ± 1.6	97.17 ± 0.96	88.1 ± 3.7	93.98 ± 0.29	98.93 ± 0.32	99.4 ± 1.1	97.6 ± 3.9	90.8 ± 4.7	1.04	0.924	0.972	0.852	0.854	0.991	0.877	0.756	0.0351	0.977	1.06	0.983	1.01	0.867	1.03	1.02	0.984	0.0304
CN(C)CC[C@H](CSc1ccccc1)Nc1ccc(S(=O)(=O)NC(=O)c2ccc(N3CCN(Cc4ccccc4-c4ccc(Cl)cc4)CC3)cc2)cc1[N+](=O)[O-] [ABT-737]	122.1 ± 0.59	118 ± 1.4	113 ± 1.9	107 ± 3.3	101 ± 3.6	43.2 ± 2	101 ± 1.5	99.05 ± 0.48	97.82 ± 0.7	98.61 ± 0.42	91.97 ± 0.57	43.5 ± 2.2	0.888	0.796	0.677	0.564	0.491	0.175	0.00664	0.00508	0.00348	1.02	0.975	0.941	0.965	0.92	0.869	0.803	0.197	0.00643
